Source: patent EP2459571B1, “NITROIMIDAZOOXAZINES AND THEIR USES IN ANTI-TUBERCULAR THERAPY” (priority 2009, dated 2011)
In brackets after ≈: the same amount, converted by molar mass.

Key:
[1] = tested on: M. tuberculosis Erdman; set-up: species or system BALB/c mice; details: mouse, po, 100 mg/kg
[2] = in vivo; details: mouse, po, 40 mg/kg
[3] = tested on: M. tuberculosis bacteria in the non-replicating state; test: microbe, parasite or virus in culture; format: cell-based; details: Mycobacterium tuberculosis, 264 h, low oxygen, 11 day, read-out: MIC LORA (anaerobic)
[4] = tested on: replicating Mycobacterium tuberculosis; test: MIC, microplate Alamar blue assay (MABA), 8 day; format: cell-based; details: 192 h, read-out: MIC MABA (aerobic)
[5] = CD-1 mice, oral, 40 mg/kg; for t½ (h) plasma: suspension in 0.5% carboxymethylcellulose/0.08% Tween 80
[6] = tested on: M. tuberculosis Erdman; format: in vivo, BALB/c mice; details: mouse, in vivo, po, 100 mg/kg

Row | SMILES | In vivo efficacy vs PA-824, Acute [1] | AUC [2] | MIC [3] | MIC [4] | Cmax plasma [5] | In vivo efficacy vs PA-824, Chronic [6] | t½ (h) plasma [5] | Kp [2]
1 | O=[N+]([O-])c1cn2c(n1)OC[C@@H](OCc1ccc(-c3ccc(OC(F)(F)F)c(F)c3)nc1)C2 [compound 21, (6S)-6-({6-[3-Fluoro-4-(trifluoromethoxy)phenyl]-3-pyridinyl}methoxy)-2-nitro-6,7-dihydro-5H-imidazo[2,1-b][1,3]oxazine] | >840 | 251 µg·h/mL | 0.93 µM (≈ 0.423 µg/mL) | 0.025 µM (≈ 0.0114 µg/mL) | 7000 ng/mL |  |  | 
2 | O=[N+]([O-])c1cn2c(n1)OC[C@@H](OCc1cnn(-c3ccc(OC(F)(F)F)cc3)c1)C2 [compound 27] |  |  | 1.8 µM (≈ 0.766 µg/mL) | 0.15 µM (≈ 0.0638 µg/mL) |  |  |  | 
3 | O=[N+]([O-])c1cn2c(n1)OC[C@@H](OCc1ccc(-c3ccc(OC(F)(F)F)cc3)c(F)c1)C2 [compound 15, (6S)-6-{[2-Fluoro-4'-(trifluoromethoxy)[1,1'-biphenyl]-4-yl]methoxy}-2-nitro-6,7-dihydro-5H-imidazo[2,1-b][1,3]oxazine] | >933 |  | 0.51 µM (≈ 0.231 µg/mL) | 0.055 µM (≈ 0.0249 µg/mL) |  |  |  | 
4 | Cn1nc(-c2ccc(OC(F)(F)F)cc2)cc1CO[C@@H]1COc2nc([N+](=O)[O-])cn2C1 [compound 11] | 12 | 92.4 µg·h/mL | 0.58 µM (≈ 0.255 µg/mL) | 0.06 µM (≈ 0.0264 µg/mL) |  | 0.9 |  | 
5 | O=[N+]([O-])c1cn2c(n1)OC[C@@H](OCc1ccc(-c3ccc(OC(F)(F)F)c(F)c3)cn1)C2 [compound 22, (6S)-6-({5-[3-Fluoro-4-(trifluoromethoxy)phenyl]-2-pyridinyl}methoxy)-2-nitro-6,7-dihydro-5H-imidazo[2,1-b][1,3]oxazine] | 233 | 155 µg·h/mL | 1.3 µM (≈ 0.591 µg/mL) | 0.05 µM (≈ 0.0227 µg/mL) | 7600 ng/mL |  | 8.4 h | 
6 | O=[N+]([O-])c1cn2c(n1)OC[C@@H](OCc1ccc(C#Cc3ccc(OC(F)(F)F)cc3)cc1)C2 [compound 32, (6S)-2-Nitro-6-[(4-{[4-(trifluoromethoxy)phenyl]ethynyl}benzyl)oxy]-6,7-dihydro-5H-imidazo[2,1-b][1,3]oxazine] |  |  | > 128 µM | 0.017 µM (≈ 0.00781 µg/mL) |  |  |  | 
7 | O=[N+]([O-])c1cn2c(n1)OC[C@@H](Oc1ccc(-c3ccc(OC(F)(F)F)cc3)cc1)C2 [compound 13, (6S)-2-Nitro-6-{[4'-(trifluoromethoxy)[1,1'-biphenyl]-4-yl]oxy}-6,7-dihydro-5H-imidazo[2,1-b][1,3]oxazine] | 8.1 | 347 µg·h/mL | 1.3 µM (≈ 0.548 µg/mL) | 0.05 µM (≈ 0.0211 µg/mL) | 1860 ng/mL |  |  | 
8 | O=[N+]([O-])c1cn2c(n1)OC[C@@H](OCc1ncc(-c3ccc(OC(F)(F)F)cc3)cn1)C2 [compound 29] |  |  | 1.9 µM (≈ 0.831 µg/mL) | 0.11 µM (≈ 0.0481 µg/mL) |  |  |  | 
9 | O=[N+]([O-])c1cn2c(n1)OC[C@@H](OCc1ccc(C#Cc3ccc(OC(F)(F)F)cc3)cn1)C2 [compound 18, (6S)-2-Nitro-6-[(5-{[4-(trifluoromethoxy)phenyl]ethynyl}-2-pyridinyl)methoxy]-6,7-dihydro-5H-imidazo[2,1-b][1,3]oxazine] | >933 | 235 µg·h/mL | 1.4 µM (≈ 0.645 µg/mL) | 0.02 µM (≈ 0.00921 µg/mL) |  |  |  | 
10 | O=[N+]([O-])c1cn2c(n1)OC[C@@H](OCc1ccc(-c3ccc(C(F)(F)F)nc3)cc1F)C2 [compound 23, (6S)-6-({2-Fluoro-4-[6-(trifluoromethyl)-3-pyridinyl]benzyl}oxy)-2-nitro-6,7-dihydro-5H-imidazo[2,1-b][1,3]oxazine] | 8.8 | 55.4 µg·h/mL | 0.68 µM (≈ 0.298 µg/mL) | 0.13 µM (≈ 0.057 µg/mL) |  |  |  | 
11 | O=[N+]([O-])c1cn2c(n1)OC[C@@H](OCc1ccc(C#Cc3ccc(OC(F)(F)F)cc3)nc1)C2 [compound 33, (6S)-2-Nitro-6-[(6-{[4-(trifluoromethoxy)phenyl]ethynyl}-3-pyridinyl)methoxy]-6,7-dihydro-5H-imidazo[2,1-b][1,3]oxazine] |  |  | 0.94 µM (≈ 0.433 µg/mL) | 0.02 µM (≈ 0.00921 µg/mL) |  |  |  | 
12 | O=[N+]([O-])c1cn2c(n1)OC[C@@H](OCc1ccc(-c3ccc(OC(F)(F)F)c(Cl)c3)nc1)C2 [compound 28, (6S)-6-({6-[3-Chloro-4-(trifluoromethoxy)phenyl]-3-pyridinyl}methoxy)-2-nitro-6,7-dihydro-5H-imidazo[2,1-b][1,3]oxazine] | >933 | 284 µg·h/mL | 1 µM (≈ 0.471 µg/mL) | 0.017 µM (≈ 0.008 µg/mL) |  |  |  | 
13 | O=[N+]([O-])c1cn2c(n1)OC[C@@H](OCc1ccc(-c3ccc(OC(F)(F)F)c(F)c3)cc1)C2 [compound 2, (6S)-6-{[3'-Fluoro-4'-(trifluoromethoxy)[1,1'-biphenyl]-4-yl]methoxy}-2-nitro-6,7-dihydro-5H-imidazo[2,1-b][1,3]oxazine] | 419 | > 513 µg·h/mL | 0.34 µM (≈ 0.154 µg/mL) | 0.03 µM (≈ 0.0136 µg/mL) |  |  |  | > 1
14 | O=[N+]([O-])c1cn2c(n1)OC[C@@H](OC/C=C/c1ccc(-c3ccc(OC(F)(F)F)cc3)cc1)C2 [compound 19, (6S)-2-Nitro-6-({(2E)-3-[4'-(trifluoromethoxy)[1,1'-biphenyl]-4-yl]-2-propenyl}oxy)-6,7-dihydro-5H-imidazo[2,1-b][1,3]oxazine] |  |  | > 64 µM | 0.063 µM (≈ 0.0291 µg/mL) |  |  |  | 
15 | O=[N+]([O-])c1cn2c(n1)OC[C@@H](OCc1ccc(-c3ccc(C(F)(F)F)cn3)cc1F)C2 [compound 14, (6S)-6-({2-Fluoro-4-[5-(trifluoromethyl)-2-pyridinyl]benzyl}oxy)-2-nitro-6,7-dihydro-5H-imidazo[2,1-b][1,3]oxazine] | 52 | 148 µg·h/mL | 2.3 µM (≈ 1.01 µg/mL) | 0.055 µM (≈ 0.0241 µg/mL) |  |  |  | 
16 | O=[N+]([O-])c1cn2c(n1)OC[C@@H](OCc1ccc(-c3ccc(F)cn3)cc1)C2 [compound 26, (6S)-6-{[4-(5-Fluoro-2-pyridinyl)benzyl]oxy}-2-nitro-6,7-dihydro-5H-imidazo[2,1-b][1,3]oxazine] |  |  | 1.3 µM (≈ 0.481 µg/mL) | 0.035 µM (≈ 0.013 µg/mL) |  |  |  | 
17 | O=C(O[C@@H]1COc2nc([N+](=O)[O-])cn2C1)N1CCN(c2ccc(OC(F)(F)F)cc2)CC1 [compound 20] | 5.2 | 169 µg·h/mL | 1.1 µM (≈ 0.503 µg/mL) | 0.13 µM (≈ 0.0595 µg/mL) | 2500 ng/mL |  | 10.5 h | 
18 | O=[N+]([O-])c1cn2c(n1)OC[C@@H](OCc1cnc(-c3ccc(OC(F)(F)F)cc3)nc1)C2 [compound 16] | >1120 | 131 µg·h/mL | 1.8 µM (≈ 0.787 µg/mL) | 0.027 µM (≈ 0.0118 µg/mL) |  |  |  | 
19 | O=[N+]([O-])c1cn2c(n1)OC[C@@H](OCc1cnc(-c3ccc(OC(F)(F)F)cc3)cn1)C2 [compound 4, (6S)-2-nitro-6-({5-[4-(trifluoromethoxy)phenyl]-2-pyrazinyl}methoxy)-6,7-dihydro-5H-imidazo[2,1-b][1,3]oxazine] | 167 | > 324 µg·h/mL | 1 µM (≈ 0.437 µg/mL) | 0.023 µM (≈ 0.0101 µg/mL) | 9600 ng/mL |  | 7.2 h | 
20 | O=[N+]([O-])c1cn2c(n1)OC[C@@H](OCc1ccc(-c3ccc(OC(F)(F)F)cc3)nn1)C2 [compound 24] | 11 | 93.9 µg·h/mL | 1.7 µM (≈ 0.743 µg/mL) | 0.075 µM (≈ 0.0328 µg/mL) |  |  | 2.9 h | 
